# Measurements published in patent publication US12673022B2, “Drug delivery system using solution” (Kyoto University, priority 2018, dated 2026).
# Tests used:
# [1] = system: C57BL/6J mouse right lower limb gastrocnemius; test: DNA mutation introduction efficiency using mRosa26 gRNA (T7E1 assay) after local administration; assay type: in vivo
# Experimental: Cas9 protein (20 μg), mRosa26 gRNA (5 μg), 10×PBS (5 μL) and a 2.0 M aqueous 2′-deoxycytidine solution (6.25 μL) were mixed so as to obtain an aqueous solution having final concentrations of 400 ng/μL Cas9 protein, 100 ng/μL mRosa26 gRNA, 533 mM sodium chloride and 250 mM 2′-deoxycytidine. The concentration of the resultant solution was adjusted to be 533 mM with a 5 M aqueous sodium chloride solution, diluted with UltraPure DNase/RNase-Free Distilled Water up to a liquid volume of 50 μL and incubated at normal temperature for 15 minutes. […] The Cas9 protein herein was subjected to buffer replacement with 250 mM sodium chloride by use of Amicon® Ultra 2 mL Centrifugal Filters and then put in use.
# Cas9 protein (40 μg), mRosa26 gRNA (10 μg), 10×PBS (5 μL), and a […] compound stock solution (25 μL) were mixed so as to obtain final concentrations: 800 ng/μL Cas9 protein, 200 ng/μL mRosa26 gRNA, 533 mM sodium chloride and 250 mM compound. […]
# To the right lower limb gastrocnemius of each of 9 weeks-old male C57BL/6J mice (CLEA Japan, Inc), administration solution 1 or administration solution 2 and PBS (50 μL) were administered. […] The resultant PCR product was purified by QIAquick PCR purification kit (QIAGEN), treated with T7 Endonuclease I (NEB) and analyzed by Agilent 4200 TapeStation (Agilent). […]
# As shown in FIG. 10 and FIG. 11, to find statistical significant difference between GABA and each conditions of the compounds, Dunnett's multiple comparison test using DNA mutation introduction efficiency, Indel (%), and exon skipping efficiency, was carried out. It was determined that if P value is less than 0.05, these is a statistically significant difference. […]
# A solution for transduction containing 2′-deoxycytidine as a compound (A3) and sodium chloride as the (B) salt was prepared. […] Administration solution 1 was locally administered to the mouse right lower limb gastrocnemius and the activity to cleave a target gene was evaluated. […]
# [2] = system: EGFP reporter cells (C2C12 cells); test: Number of HOECHST cells detected (cell viability) in the EGFP-SSA assay; details: Example 1, formula (2)
# Experimental: To each of the solutions, a complex of gRNA and Cas9 protein was further dissolved. Mouse myoblasts (C2C12 cells) were contacted with each of the solutions in vitro, and target gene cleavage activity and cell viability were evaluated.
# [3] = system: EGFP reporter cells (C2C12 cells); test: EGFP-SSA assay: uptake of Cas9 protein/gRNA complex into cells (EGFP positive rate); assay type: cell-based, mouse; details: Example 1; compound 100.0 mM; reaction solution 1 (550 mM sodium chloride, 1 mM HEPES, Cas9 protein/gRNA), 30 minutes
# [4] = system: EGFP reporter cells (C2C12 cells); test: as above; assay type: cell-based, mouse; details: Example 1; compound 250.0 mM; reaction solution 1 (550 mM sodium chloride, 1 mM HEPES, Cas9 protein/gRNA), 30 minutes
# From the text: EGFP-SSA assay: an abbreviation of EGFP-single strand annealing assay. The reporter cassette shown in FIG. 1 is inserted in EGFP reporter cells. In the middle of the EGFP sequence of the cassette, MmDMD-Ex51 sequence is inserted. Since the presence of MmDMD-Ex51 sequence, by which EGFP ORF is divided, EGFP protein is not usually translated. However, when target sequence of MmDMD-Ex51 is cleaved by Cas9 protein/gRNA complex, the upstream region (EG part) and the downstream region (FP part) of EGFP ORF are annealed via a homology area into a single strand, with the result that a full-length EGFP ORF emerges to produce EGFP protein. Based on this principle, the ratio of the number of cells producing EGFP is checked by the EGFP-SSA assay. In this manner, the amount of Cas9 protein/gRNA complex delivered to cells can be predicted.
# (§1) Cas9 protein (0.4 μg), tracrRNA (34.18 ng), MmDmd Ex51 crRNA (29.48 ng), a 1 M HEPES buffer (0.05 μL) and a 5 M aqueous sodium chloride solution (5.5 μL) were mixed and diluted with UltraPure DNase/RNase-Free Distilled Water up to a liquid volume of 37.5 μL so as to obtain final concentrations: 8 ng/μL Cas9 protein, 0.68 ng/μL tracrRNA, 0.59 ng/μL MmDmd Ex51 crRNA, 1 mM HEPES, 550 mM sodium chloride, and 250 mM compound. To this solution, a 1000 mM compound solution (12.5 μL) was added and the solution mixture was incubated at normal temperature for 15 minutes.
# as §1, with “buffer (2.5” for “buffer (0.05”, “solution (4.85” for “solution (5.5”, “crRNA, 50” for “crRNA, 1”, “HEPES, 485” for “HEPES, 550”, “minutes. Note that, in the cases where the final concentrations of the compound are 0.69 mM, 25 mM, 100 mM, 125 mM, 160 mM, 200 mM and 500 mM, the compound stock solution was diluted with UltraPure DNase/RNase-Free Distilled Water up to concentrations of 2.76 mM, 100 mM, 400 mM, 500 mM, 640 mM, 800 mM and 2000 mM, respectively, and then, added. […]” for “minutes.”
# Cas9 protein (2.0 μg), tracrRNA (170.9 ng), MmDmd Ex51 crRNA (147.4 ng), a 1 M HEPES buffer (12.5 μL), a 5 M aqueous sodium chloride solution (18.35 μL) and a 1 M aqueous GABA solution (62.5 μL) were mixed, diluted with UltraPure DNase/RNase-Free Distilled Water up to a liquid volume of 250 μL so as to obtain final concentrations: 8 ng/μL Cas9 protein, 0.68 ng/μL tracrRNA, 0.59 ng/μL MmDmd Ex51 crRNA, 50 mM HEPES, 250 mM GABA and 367 mM sodium chloride, and incubated at normal temperature for 15 minutes. Note that the addition amount of the 5 M aqueous sodium chloride solution was changed to 24.25 μL in the case of 485 mM sodium chloride and the addition amount was changed to 27.5 μL in the case of 550 mM sodium chloride, respectively.
SMILES,"Genome editing (mutation introduction efficiency, indel (%)) ([1]; Example 5, administration solution 1: 250 mM 2′-deoxycytidine, sodium chloride 163, 233, 333, 433 or 533 mM, mRosa26 gRNA/Cas9, 50 μL for 3 consecutive days, FIG. 9)",Relative ratio to GABA: Number of HOECHST cells ([2]; compound 100.0 mM vs 250 mM GABA positive control on the same plate),Compound activity: EGFP positive rate (%) [3] [%],Compound activity: EGFP positive rate (%) [4] [%],"Genome editing efficiency (indel (%)) compared to 250 mM GABA ([1]; Example 6, administration solution 2: 25 mM or 250 mM 2′-deoxycytidine, 6-phospho-D-gluconic acid, N-carbamyl-L-aspartic acid or 2-deoxy-D-glucose-6-phosphate, 533 mM sodium chloride, 50 μL once, Dunnett's test, FIG. 10)",Relative ratio to GABA: Number of HOECHST cells ([2]; compound 250.0 mM vs 250 mM GABA positive control on the same plate)
Nc1ccn([C@H]2C[C@H](O)[C@@H](CO)O2)c(=O)n1 [2′-Deoxycytidine],Genome editing was confirmed,1.01,1.10,–,–,–
"O=CC[C@@H](O)[C@H](O)[C@H](O)COP(=O)(O)O [Oxy-D-glucose-6-phosphate, 2-deoxy-D-glucose-6-phosphate]",–,–,–,1.38,statistically significant results compared to GABA,1.06
